The source of these data is patent US20050267114A1, “Triazaspiro[5.5]undecane derivatives and drugs comprising the same as the active ingredient” (priority 2002, published 2005).

The test concerns the target T1, human CCR5 (Homo sapiens, UniProt P51681).
T1 construct: expressed in transfected cells; host or cells: CHO-dhfr(-) cells stably transfected with plasmid pEF-BOS-bsr/hCCR5
The experiment in a line: Inhibition test on the binding of RANTES to CCR5 (RANTES-induced transient increase of Ca ion). Type of test: cell-based. Conditions: human RANTES 10 nM; CCR5/CHO cell; Ca2+ transient increase. On the procedure:
(1) Isolation of Human CCR5 Gene
Human placental cDNA was prepared using Marathon cDNA amplification kit (Clontech). PCR primers hCCR5Xbal-F1:
Using the human placental cDNA as the template and using Ex Taq (Takara), PCR reaction (2 minutes at 95° C.→(30 seconds at 95° C., 45 seconds at 60° C., 1 minute at 72° C.)×35 times) was carried out. The thus amplified PCR product was subjected to a 1% agarose gel electrophoresis, purified using QIAquick Gel Extraction Kit (QUIAGEN) and then digested with a restriction enzyme XbaI. The digested fragments were ligated to an expression vector pEF-BOS-bsr using DNA Ligation Kit Ver. 2 (Takara) and transformed into Escherichia coli DH5a. […]
The thus established human CCR5 stably over-expressing CHO cell (CCR5/CHO cell) was suspended in Ham's F-12 medium containing FBS (10%) and dispensed in […] portions into a 96 well plate. […] Transient increase in the intracellular Ca^2+ concentration induced by the human RANTES was measured using a Ca^2+ detector for 96 well use (Hamamatsu Photonics), and inhibition ratio (%) of the test compound was calculated by the following calculation formula. Inhibition ratio=(Ec−Ea)/Ec×100 • Ec: measured value of Ca^2+ transient increase by RANTES • Ea: measured value of Ca^2+ transient increase by RANTES when a test compound was added.

Structures can show the parent of a compound that is named as a salt.

T1 sequence (P51681 whole entry): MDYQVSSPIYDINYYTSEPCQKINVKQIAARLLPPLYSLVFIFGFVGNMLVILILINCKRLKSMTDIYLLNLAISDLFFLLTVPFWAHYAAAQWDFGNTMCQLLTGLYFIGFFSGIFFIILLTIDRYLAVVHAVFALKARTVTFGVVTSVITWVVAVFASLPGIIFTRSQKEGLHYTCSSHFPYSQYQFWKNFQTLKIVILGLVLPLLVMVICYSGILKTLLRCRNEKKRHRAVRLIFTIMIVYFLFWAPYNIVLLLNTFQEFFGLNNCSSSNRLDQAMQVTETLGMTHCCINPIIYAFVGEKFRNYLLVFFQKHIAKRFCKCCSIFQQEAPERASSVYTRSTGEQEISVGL

The IC50 is the concentration that inhibits the measured activity by half. A lower IC50 goes with higher potency. `CCCCN1C(=O)[C@@H]([C@H](O)C(CC)CC)NC(=O)C12CCN(Cc1ccc(Cc3ccc(C(=O)NC)cc3Cl)cc1)CC2` [Example 3(179), (3R)-1-butyl-2,5-dioxo-3-((1R)-1-hydroxy-2-ethylbutyl)-9-(4-(4-methylaminocarbonyl-2-chlorophenylmethyl)phenylmethyl)-1,4,9-triazaspiro[5.5]undecane hydrochloride] gave an IC50 of 10 nM.
